Test system: MV-4-11 cells
Experiment: Gene expression microarray analysis (Affymetrix PrimeView) and GSEA
Assay type: cell-based, human
Set-up: RFU PODN (11730768_x_at) / Fold change /veh PODN (11730768_x_at) / RFU LINC00158 (11744669_a_at) / Fold change /veh LINC00158 (11744669_a_at) / RFU DUSP10 (11751237_a_at) / Fold change /veh DUSP10 (11751237_a_at) / RFU ID3 (11757404_x_at) / Fold change /veh ID3 (11757404_x_at) / RFU PLEKHG5 (11737974_s_at) / Fold change /veh PLEKHG5 (11737974_s_at) / RFU LRRC4B (11730491_at) / Fold change /veh LRRC4B (11730491_at) / RFU GIMAP4 (11747438_a_at) / Fold change /veh GIMAP4 (11747438_a_at) / RFU KRT8 (11758183_x_at) / Fold change /veh KRT8 (11758183_x_at) / RFU CNN1 (11734310_a_at) / Fold change /veh CNN1 (11734310_a_at) / RFU VPS37D (11726825_at) / Fold change /veh VPS37D (11726825_at) / RFU C10orf10 (11716522_x_at) / Fold change /veh C10orf10 (11716522_x_at) / RFU KIR2DL2 /// KIR2DL4 /// KIR2DL5A /// KIR2DL5B /// KIR2DS1 /// KIR2DS2 /// KIR2DS3 /// KIR2DS4 /// KIR3DL3 /// KIR3DL3 /// KIR3DS1 (11738374_at) / Fold change /veh KIR2DL2 /// KIR2DL4 /// KIR2DL5A /// KIR2DL5B /// KIR2DS1 /// KIR2DS2 /// KIR2DS3 /// KIR2DS4 /// KIR3DL3 /// KIR3DL3 /// KIR3DS1 (11738374_at) / RFU C1QL1 (11718748_at) / Fold change /veh C1QL1 (11718748_at) / RFU TMPRSS4 (11747572_a_at) / Fold change /veh TMPRSS4 (11747572_a_at) / RFU HAMP (11756126_x_at) / Fold change /veh HAMP (11756126_x_at) / RFU RNFT2 (11725882_a_at) / Fold change /veh RNFT2 (11725882_a_at) / RFU NR4A2 (11747474_a_at) / Fold change /veh NR4A2 (11747474_a_at) / RFU ABCC12 (11746883_a_at) / Fold change /veh ABCC12 (11746883_a_at) / RFU TMEM136 (11760407_x_at) / Fold change /veh TMEM136 (11760407_x_at) / RFU CLDN22 /// WWC2 (11732394_at) / Fold change /veh CLDN22 /// WWC2 (11732394_at) / RFU HLA-DPB1 (11760878_x_at) / Fold change /veh HLA-DPB1 (11760878_x_at) / RFU SPINT1 (11716480_a_at) / Fold change /veh SPINT1 (11716480_a_at) / RFU GAP43 (11754022_s_at) / Fold change /veh GAP43 (11754022_s_at) / RFU A4GNT (11735810_at) / Fold change /veh A4GNT (11735810_at) / RFU PRB3 (11715151_x_at) / Fold change /veh PRB3 (11715151_x_at) / RFU TUBB4B (11761932_at) / Fold change /veh TUBB4B (11761932_at) / RFU CAPN14 (11732068_a_at) / Fold change /veh CAPN14 (11732068_a_at) / RFU TMCC2 (11721928_a_at) / Fold change /veh TMCC2 (11721928_a_at) / RFU IRGQ (11745062_a_at) / Fold change /veh IRGQ (11745062_a_at) / RFU FAM174B (11720279_a_at) / Fold change /veh FAM174B (11720279_a_at) / RFU TMPRSS4 (11748680_a_at) / Fold change /veh TMPRSS4 (11748680_a_at) / RFU FAM212B (11763350_a_at) / Fold change /veh FAM212B (11763350_a_at) / RFU PLEKHG5 (11743358_a_at) / Fold change /veh PLEKHG5 (11743358_a_at) / RFU ZSCAN30 (11745921_a_at) / Fold change /veh ZSCAN30 (11745921_a_at) / RFU CMKLR1 (11741424_a_at) / Fold change /veh CMKLR1 (11741424_a_at) / RFU LOC101060620 /// MAPK8IP1 (11723275_at) / Fold change /veh LOC101060620 /// MAPK8IP1 (11723275_at) / RFU SPTSSB (11747773_x_at) / Fold change /veh SPTSSB (11747773_x_at) / RFU PRSS12 (11739890_at) / Fold change /veh PRSS12 (11739890_at) / RFU BIN1 (11741810_x_at) / Fold change /veh BIN1 (11741810_x_at) / RFU WNT11 (11732464_a_at) / Fold change /veh WNT11 (11732464_a_at) / RFU C10orf10 (11716521_a_at) / Fold change /veh C10orf10 (11716521_a_at) / RFU C5orf56 (11738089_at) / Fold change /veh C5orf56 (11738089_at) / RFU CYB561 (11721691_x_at) / Fold change /veh CYB561 (11721691_x_at) / RFU ANKRD19P (11752326_a_at) / Fold change /veh ANKRD19P (11752326_a_at) / RFU OR2T12 /// OR2T33 /// OR2T8 (11738714_s_at) / Fold change /veh OR2T12 /// OR2T33 /// OR2T8 (11738714_s_at) / RFU VCAN (11748164_a_at) / Fold change /veh VCAN (11748164_a_at) / RFU JSRP1 (11732532_at) / Fold change /veh JSRP1 (11732532_at) / RFU KRTAP10-11 (11738290_x_at) / Fold change /veh KRTAP10-11 (11738290_x_at) / RFU MYO3A (11730013_a_at) / Fold change /veh MYO3A (11730013_a_at) / RFU EBF3 (11725865_a_at) / Fold change /veh EBF3 (11725865_a_at) / RFU CAMK2N1 (11719241_x_at) / Fold change /veh CAMK2N1 (11719241_x_at) / RFU C5orf56 (11738088_a_at) / Fold change /veh C5orf56 (11738088_a_at) / RFU OLFML3 (11715873_a_at) / Fold change /veh OLFML3 (11715873_a_at) / RFU LOC100653217 /// NTM (11731650_a_at) / Fold change /veh LOC100653217 /// NTM (11731650_a_at) / RFU MAPK11 (11762145_a_at) / Fold change /veh MAPK11 (11762145_a_at) / RFU FIZ1 (11724087_x_at) / Fold change /veh FIZ1 (11724087_x_at) / RFU OASL (11726364_x_at) / Fold change /veh OASL (11726364_x_at) / RFU SOX15 (11748057_x_at) / Fold change /veh SOX15 (11748057_x_at) / RFU CD79A (11719716_a_at) / Fold change /veh CD79A (11719716_a_at) / RFU HIST1H1D (11736915_at) / Fold change /veh HIST1H1D (11736915_at) / RFU CASKIN2 (11723855_a_at) / Fold change /veh CASKIN2 (11723855_a_at) / RFU LOC730098 (11760151_x_at) / Fold change /veh LOC730098 (11760151_x_at) / RFU OR4N2 (11742367_at) / Fold change /veh OR4N2 (11742367_at) / RFU PRRT2 (11749266_a_at) / Fold change /veh PRRT2 (11749266_a_at) / RFU SNX32 (11753110_a_at) / Fold change /veh SNX32 (11753110_a_at) / RFU CDHR5 (11726645_a_at) / Fold change /veh CDHR5 (11726645_a_at) / RFU RCAN1 (11760418_a_at) / Fold change /veh RCAN1 (11760418_a_at) / RFU FAM167A (11723789_a_at) / Fold change /veh FAM167A (11723789_a_at) / RFU FAM26E (11764081_at) / Fold change /veh FAM26E (11764081_at) / RFU ISYNA1 (11749810_s_at) / Fold change /veh ISYNA1 (11749810_s_at) / RFU ACY1 (11761880_at) / Fold change /veh ACY1 (11761880_at) / RFU 11764098_at / Fold change /veh 11764098_at / RFU SAMD14 (11745864_x_at) / Fold change /veh SAMD14 (11745864_x_at) / RFU NPB (11741838_a_at) / Fold change /veh NPB (11741838_a_at) / RFU TMPRSS6 (11731388_a_at) / Fold change /veh TMPRSS6 (11731388_a_at) / RFU KRTAP10-2 (11738614_at) / Fold change /veh KRTAP10-2 (11738614_at) / RFU ARHGAP8 /// PRR5-ARHGAP8 (11727945_x_at) / Fold change /veh ARHGAP8 /// PRR5-ARHGAP8 (11727945_x_at) / RFU KRTAP5-7 /// NADSYN1 (11734609_at) / Fold change /veh KRTAP5-7 /// NADSYN1 (11734609_at) / RFU RASL12 (11751679_a_at) / Fold change /veh RASL12 (11751679_a_at) / RFU CDKN2B (11736163_a_at) / Fold change /veh CDKN2B (11736163_a_at) / RFU PRF1 (11729649_at) / Fold change /veh PRF1 (11729649_at) / RFU, ZNF638 /// ZNF638-IT1 / Fold change vs veh, ZNF638 /// ZNF638-IT1 / RFU, PANK3 / Fold change vs veh, PANK3 / RFU, SH3YL1 / Fold change vs veh, SH3YL1 / RFU, ZEB2 / Fold change vs veh, ZEB2 / RFU, NRIP1 / Fold change vs veh, NRIP1 / RFU, PTTG1IP / Fold change vs veh, PTTG1IP / RFU, CAPN2 / Fold change vs veh, CAPN2 / RFU, MED14 / Fold change vs veh, MED14 / RFU, SNORA58 / Fold change vs veh, SNORA58 / RFU, C1orf63 / Fold change vs veh, C1orf63 / RFU, LRRFIP1 / Fold change vs veh, LRRFIP1 / RFU, NDUFAF7 / Fold change vs veh, NDUFAF7 / RFU, SLC12A2 / Fold change vs veh, SLC12A2 / RFU, IBTK / Fold change vs veh, IBTK / RFU, ESF1 / Fold change vs veh, ESF1 / Fold change vs veh, TMEM50B / RFU, TAOK1 / Fold change vs veh, TAOK1 / RFU, ACBD3 / Fold change vs veh, ACBD3 / RFU, TMA16 / Fold change vs veh, TMA16 / RFU, RWDD3 / Fold change vs veh, RWDD3 / RFU, BCAT1 / Fold change vs veh, BCAT1 / RFU, EDEM3 / Fold change vs veh, EDEM3 / RFU, TMEM33 / Fold change vs veh, TMEM33 / RFU, WDR75 / Fold change vs veh, WDR75 / RFU, AHCTF1 / Fold change vs veh, AHCTF1 / RFU, TFRC / Fold change vs veh, TFRC / RFU, ZDHHC17 / Fold change vs veh, ZDHHC17 / RFU, NOM1 / Fold change vs veh, NOM1 / RFU, ARL8B / Fold change vs veh, ARL8B / RFU, ZBTB11 / Fold change vs veh, ZBTB11 / RFU, TAMM41 / Fold change vs veh, TAMM41 / RFU, KIAA1704 /// LOC100996395 / Fold change vs veh, KIAA1704 /// LOC100996395 / RFU, ING1 / Fold change vs veh, ING1 / RFU, TRMT61B / Fold change vs veh, TRMT61B / RFU, FUBP3 / Fold change vs veh, FUBP3 / RFU, TP53 / Fold change vs veh, TP53 / RFU, TNKS2 / Fold change vs veh, TNKS2 / RFU, ZFP14 / Fold change vs veh, ZFP14 / RFU, ACTR2 / Fold change vs veh, ACTR2 / RFU, PPP3R1 / Fold change vs veh, PPP3R1 / RFU, PIK3R1 / Fold change vs veh, PIK3R1 / RFU, HNRNPA1 / Fold change vs veh, HNRNPA1 / RFU, RNF170 / Fold change vs veh, RNF170 / RFU, ZNF28 / Fold change vs veh, ZNF28 / RFU, RNGTT / Fold change vs veh, RNGTT / RFU, OGT / Fold change vs veh, OGT / RFU, BRD1 / Fold change vs veh, BRD1 / RFU, MARS / Fold change vs veh, MARS / RFU, ZNF655 / Fold change vs veh, ZNF655 / RFU, FAHD1 / Fold change vs veh, FAHD1 / RFU, BDP1 / Fold change vs veh, BDP1 / RFU, LRRCC1 / Fold change vs veh, LRRCC1 / RFU, ARID1A / Fold change vs veh, ARID1A / RFU, ZNF146 / Fold change vs veh, ZNF146 / RFU, ZNF330 / Fold change vs veh, ZNF330 / RFU, GPN3 / Fold change vs veh, GPN3 / RFU, C9orf123 / Fold change vs veh, C9orf123 / RFU, N4BP2L2 / Fold change vs veh, N4BP2L2 / RFU, ARFIP1 / Fold change vs veh, ARFIP1 / RFU, FAM179B / Fold change vs veh, FAM179B / RFU, BCL10 / Fold change vs veh, BCL10 / RFU, UHRF1BP1L / Fold change vs veh, UHRF1BP1L / RFU, BET1 / Fold change vs veh, BET1 / RFU, CNOT2 / Fold change vs veh, CNOT2 / RFU, ZNF268 / Fold change vs veh, ZNF268 / Fold change vs veh, ZNF507 / RFU, DGCR2 / Fold change vs veh, DGCR2 / RFU, WDSUB1 / Fold change vs veh, WDSUB1 / Fold change vs veh, HSP90B1 /// MIR3652 / RFU, ADSS / Fold change vs veh, ADSS / RFU, GK / Fold change vs veh, GK / RFU, ZNF148 / Fold change vs veh, ZNF148 / RFU, TAF9 / Fold change vs veh, TAF9 / RFU, SLC1A5 / Fold change vs veh, SLC1A5 / RFU, SLMO2 / Fold change vs veh, SLMO2 / RFU, ABCC4 / Fold change vs veh, ABCC4 / RFU, LOC101060439 /// RAP1B / Fold change vs veh, LOC101060439 /// RAP1B / RFU, RFX7 / Fold change vs veh, RFX7 / RFU, GTPBP10 / Fold change vs veh, GTPBP10 / RFU, CNEP1R1 / Fold change vs veh, CNEP1R1 / RFU, BIVM-ERCC5 /// ERCC5 / Fold change vs veh, BIVM-ERCC5 /// ERCC5 / RFU, ILF3 / Fold change vs veh, ILF3 / RFU 11762660_at / Fold change /veh 11762660_at / RFU VCAN (11757783_s_at) / Fold change /veh VCAN (11757783_s_at) / RFU DDX43 (11728927_at) / Fold change /veh DDX43 (11728927_at) / RFU KRT8 (11758188_x_at) / Fold change /veh KRT8 (11758188_x_at) / RFU NKD1 (11759106_at) / Fold change /veh NKD1 (11759106_at) / RFU SRD5A1 (11742802_a_at) / Fold change /veh SRD5A1 (11742802_a_at) / RFU TPSAB1 /// TPSB2 (11721975_s_at) / Fold change /veh TPSAB1 /// TPSB2 (11721975_s_at) / RFU GSTM3 (11746129_a_at) / Fold change /veh GSTM3 (11746129_a_at) / RFU IL23R (11737362_x_at) / Fold change /veh IL23R (11737362_x_at) / RFU TMEM51 (11727254_a_at) / Fold change /veh TMEM51 (11727254_a_at) / RFU PIWIL2 (11732686_x_at) / Fold change /veh PIWIL2 (11732686_x_at) / RFU ORM1 (11744905_x_at) / Fold change /veh ORM1 (11744905_x_at) / RFU CCDC152 (11743942_at) / Fold change /veh CCDC152 (11743942_at) / RFU ECM1 (11717891_a_at) / Fold change /veh ECM1 (11717891_a_at) / RFU IL23R (11748794_a_at) / Fold change /veh IL23R (11748794_a_at) / RFU TNFAIP8L3 (11732012_x_at) / Fold change /veh TNFAIP8L3 (11732012_x_at) / RFU MBOAT4 (11741988_at) / Fold change /veh MBOAT4 (11741988_at) / RFU 11764193_at / Fold change /veh 11764193_at / RFU TMEM53 (11763286_at) / Fold change /veh TMEM53 (11763286_at) / RFU MAGEB2 (11727129_at) / Fold change /veh MAGEB2 (11727129_at) / RFU TMEM200A (11744735_a_at) / Fold change /veh TMEM200A (11744735_a_at) / RFU CCDC152 (11751479_a_at) / Fold change /veh CCDC152 (11751479_a_at) / RFU FAM211A (11726209_a_at) / Fold change /veh FAM211A (11726209_a_at) / RFU RGS16 (11746705_a_at) / Fold change /veh RGS16 (11746705_a_at) / RFU VCAN (11755009_s_at) / Fold change /veh VCAN (11755009_s_at) / RFU RHOB (11743442_s_at) / Fold change /veh RHOB (11743442_s_at) / RFU RGS16 (11720943_a_at) / Fold change /veh RGS16 (11720943_a_at) / RFU RGS16 (11720944_at) / Fold change /veh RGS16 (11720944_at) / RFU, VPS4B / Fold change vs veh, VPS4B / RFU, CREB1 / Fold change vs veh, CREB1 / RFU, DNAJC13 / Fold change vs veh, DNAJC13 / RFU, GNAQ / Fold change vs veh, GNAQ / RFU, CDK5R1 / Fold change vs veh, CDK5R1 / RFU, ZRANB3 / Fold change vs veh, ZRANB3 / RFU, CUL4A / Fold change vs veh, CUL4A / RFU, CCNY / Fold change vs veh, CCNY / RFU, UFL1 / Fold change vs veh, UFL1 / RFU, COG3 / Fold change vs veh, COG3 / RFU, DIAPH2 / Fold change vs veh, DIAPH2 / RFU, SKA2 / Fold change vs veh, SKA2 / RFU, AFF3 / Fold change vs veh, AFF3 / RFU, LMF1 / Fold change vs veh, LMF1 / RFU, IPO11 / Fold change vs veh, IPO11 / RFU, DFFB / Fold change vs veh, DFFB / RFU, FOXP1 / Fold change vs veh, FOXP1 / RFU, CARD8 / Fold change vs veh, CARD8 / RFU, STRN3 / Fold change vs veh, STRN3 / RFU, ADK / Fold change vs veh, ADK / RFU, RASSF2 / Fold change vs veh, RASSF2 / RFU, WIPF1 / Fold change vs veh, WIPF1 / RFU, LARP1B / Fold change vs veh, LARP1B / RFU, RASA1 / Fold change vs veh, RASA1 / RFU, RB1 / Fold change vs veh, RB1 / RFU, PPFIA1 / Fold change vs veh, PPFIA1 / RFU, MAT2A / Fold change vs veh, MAT2A / RFU, CCT5 / Fold change vs veh, CCT5 / RFU, WDR92 / Fold change vs veh, WDR92 / RFU, CUX1 / Fold change vs veh, CUX1 / RFU, TTC7A / Fold change vs veh, TTC7A / RFU, TMEM135 / Fold change vs veh, TMEM135 / RFU, DEPTOR / Fold change vs veh, DEPTOR / RFU, CPM / Fold change vs veh, CPM / RFU, DNAJB6 / Fold change vs veh, DNAJB6 / RFU, CACNA2D3 / Fold change vs veh, CACNA2D3 / RFU, DTX4 / Fold change vs veh, DTX4 / RFU, TFCP2 / Fold change vs veh, TFCP2 / RFU, GMCL1 /// GMCL1P1 / Fold change vs veh, GMCL1 /// GMCL1P1 / RFU, AEBP2 / Fold change vs veh, AEBP2 / RFU, SNHG1 /// SNORD22 /// SNORD25 /// SNORD26 /// SNORD27 /// SNORD28 /// SNORD29 /// SNORD31 / Fold change vs veh, SNHG1 /// SNORD22 /// SNORD25 /// SNORD26 /// SNORD27 /// SNORD28 /// SNORD29 /// SNORD31 / Fold change (Aza/veh), C12orf56 (ProbeSet 11735607_a_at) / Fold change (ACY-1035/veh), C12orf56 (ProbeSet 11735607_a_at) / Fold change (Aza/veh), FGFR1OP (ProbeSet 11751329_s_at) / Fold change (ACY-1035/veh), FGFR1OP (ProbeSet 11751329_s_at) / Fold change (Aza/veh), VPS36 (ProbeSet 11739960_a_at) / Fold change (ACY-1035/veh), VPS36 (ProbeSet 11739960_a_at) / RFU SYPL1 (11715823_x_at) / Fold change /veh SYPL1 (11715823_x_at) / RFU IGFBP7 (11715501_s_at) / Fold change /veh IGFBP7 (11715501_s_at) / RFU REEP3 (11722064_at) / Fold change /veh REEP3 (11722064_at) / RFU IGLL1 (11728026_x_at) / Fold change /veh IGLL1 (11728026_x_at): dose or concentration left out as unconfirmed
Conditions: ProbeSet 11749551_a_at; LIST B

**Q.** For `Nc1ccc(-c2cccs2)cc1NC(=O)c1ccc2c(c1)cc(C1CC1)n2CCN1CCOCC1` [ACY-1035], which “Fold change vs veh, RNGTT” value is on record?
**A.** 0.96

— publication PMC5218480 (PLoS ONE, 2017)
